According to patent publication US4774381A, “Herbicide resistant tobacco” (E. I. Du Pont de Nemours and Company, priority 1985, dated 1988):

How the values were obtained:
[1] = test system: acetolactate synthase (ALS), Isolate 16 (S4/S4) extract; test: ALS activity assay in cell extracts; format: biochemical, Nicotiana tabacum; conditions: for Uninhibited activity (%) in the Presence of Chlorsulfuron: Isolate 16 (S4/S4)
Method: Cell suspension cultures of normal (H1) and homozygous mutant (Isolate 16) cell lines were washed in C1 liquid medium. After washing, cells were extracted in a 100 mM potassium phosphate buffer (pH 7.5) containing 0.5 mM MgCl2, 1 mM sodium pyruvate, 0.5 mM thiamine pyrophosphate, 10 micromolar flavine-adenine dinucleotide (FAD) and 10 percent (by volume) glycerol. Polyclar AT (BDH Chemicals Ltd) was added to a final concentration of 250 mg per gram fresh weight of tissue. After centrifugation at 27,000xg for 15 minutes at 4°, an equal volume of a saturated solution of amminium sulfate was added to the supernatant fraction. The resultant precipitate (representing a 0 to 50 percent ammonium sulfate fraction) was redissolved in 100 mM potassium phosphate buffer (pH 7.5) containing 0.5 mM MgCl2, 1 mM sodium pyruvate, and salts were removed by passage through a Sephadex G-25 (Pharmacia PD-10) column.
ALS activity was assayed in a total volume of 500 microliters containing 100 microliters of the column eluate, 65 mM potassium phosphate buffer (pH 7.5) containing 10 mM MgCl2, 40 mM sodium pyruvate, 250 micromolar thiamine pyrophosphate, 23 micromolar FAD, and 1, 5, 10, 50, 100, 500 or 1000 ppb chlorsulfuron or sulfometuron-methyl. After incubation at 30° for 90 minutes, 250 microliters of 6N H2 SO4 was added to each assay tube, and the tubes were incubated at 55° for 10 minutes to terminate the enzymatic reaction and achieve complete conversion of acetolactate to acetoin. Acetoin content was then measured by a modification of the procedure described by Westerfield, J. Biol. Chem. 161:495 (1945). To each tube was added sequentially 100 microliters 50 percent NaOH, 150 microliters 0.5 percent creatine, and 150 microliters 5 percent alpha-napthol (in 2.5N NaOH). Color development was accelerated by incubation at 55° for 10 minutes. Tubes were then centrifuged, and the optical density was read at 530 nm. Background optical densities, which were subtracted from the optical density values of the reactions, were determined for each extract from parallel assays to which the enzyme extract was added after the addition of 6N H2 SO4. Protein concentrations were measured with Bio-Rad Protein Assay reagent with bovine serum albumin as a standard. Data points and specific activities, which are set forth below and in FIG. 2, represent the average values of at least three independent determinations. ALS activities are presented in FIG. 2 as percent activity in the absence of herbicide.
Responses to chlorsulfuron were determined for ALS activities in extracts of cells suspension cultures derived from nine individuals that differed with resepct to the S4 mutation. As described above, these individuals were produced by self-fertilization of an S4/+ heterozygote, and their genotypes were established by means of progeny analysis. Callus and plant phenotypes were determined by growth responses of cell cultures and seedlings, respectively, on herbicide-supplemented medium. […] In contrast, all individuals homozygous for the S4 mutation contained a highly resistant form of the enzyme. […] The correlation between both callus and plant phenotype and the response of ALS activity in vitro to the herbicide is both absolute and quantitative.

[2] = test system: S5/S5 homozygous mutant cell line; test: Callus growth test; format: cell-based, Nicotiana tabacum; conditions: 10 ppb herbicide
Method: (§1) Callus growth tests were conducted substantially according to the following procedure. Approximately 50 mg callus tissue, grown on non-selective media, was spread over 7 cm diameter paper filter discs (Whatman No. 1), which were placed on the medium surface of petri dishes containing C1 agar media and varying concentrations of chlorsulfuron. The resulting cultures were incubated for 14 days at 25±1°, under fluorescent lamps programmed to provide a 16-hour photoperiod per day. At the conclusion of the incubation period, tissue was scraped from each filter disc and weighed. The final fresh weights were recorded, and means and standard errors of the means determined for all cases. The significance of differences between responses of individual cell lines to various concentrations of chlorsulfuron was determined at a probability level of 5% by a t-test for populations having different standard deviations, as described by Snedecor, et al., Statistical Methods (Iowa State University Press, Ames, Iowa, (1967), pp. 114-116).
(§2) A series of experiments was performed to investigate further the cross-resistance of various resistant cell lines to other herbicidally-effective sulfonamides. First, several homozygous mutant cell lines were evaluated for resistance to sulfometuron-methyl and chlorsulfuron by callus growth tests, performed substantially similarly to the callus growth experiments previously described. In these experiments, callus cultures were derived from R1 plants, which constitute the progeny produced by self-fertilization of a regenerated plant.

[3] = test system: C4/C4 homozygous mutant cell line; test: Callus growth test; format: cell-based, Nicotiana tabacum; conditions: 10 ppb herbicide
Method: as §1, §2

[4] = test system: C3/C3 homozygous mutant cell line; test: Callus growth test; format: cell-based, Nicotiana tabacum; conditions: 10 ppb herbicide
Method: as §1, §2

[5] = test system: Normal (H1) cell line; test: Callus growth test; format: cell-based, Nicotiana tabacum; conditions: for % of control fresh weight / Fr. Wt.: 10 ppb herbicide, H1 (Table 4)
Method: as §1, §2

[6] = test system: S6/S6 homozygous mutant cell line; test: Callus growth test; format: cell-based, Nicotiana tabacum; conditions: 10 ppb herbicide
Method: as §1, §2

[7] = test system: S1/S1 homozygous mutant cell line; test: Callus growth test; format: cell-based, Nicotiana tabacum; conditions: 10 ppb herbicide
Method: as §1, §2

[8] = test system: S4/S4 homozygous mutant cell line; test: Callus growth test; format: cell-based, Nicotiana tabacum; conditions: for % of control fresh weight / Fr. Wt.: 10 ppb herbicide, S4/S4 (Table 4)
Method: as §1, §2

[9] = test system: callus cultures derived from plants that carried the S4 mutation; test: Callus growth on herbicide-supplemented medium; format: cell-based, Nicotiana tabacum; conditions: herbicide at 5 parts per billion (ppg) (14 nM)
Excerpt: A plant heterozygous for the S4 mutation was constructed by a series of backcrosses of a plant regenerated from a herbicide-resistant tobacco cell line with plants of the parental variety (N. tabacum cv. Xanthi). Self-fertilization of this heterozygous individual yielded homozygous mutant, heterozygous, and homozygous normal progeny in the ratio of 1 to 2 to 1, respectively, which is expected for segregation of a single semidominant nuclear allele. The genotypes of these progeny plants were confirmed by analysis of a subsequent generation. Callus cultures were established as previously described from several of the genetically defined isolates produced by self-fertilization of the S4/+ heterozygote. […] Cell suspension cultures were initiated from these callus cultures and from the parental haploid cell line (H1) by transferring callus to a liquid C1 medium in which 2,4-dichlorophenoxyacetic acid (2 mg/L) had been substituted for napthaleneacetic acid and from which agar had been omitted. ALS activity was then assayed in extracts prepared from these cell suspension cultures as follows.

`COc1nc(C)nc(NC(=O)NS(=O)(=O)c2ccccc2Cl)n1` [Chlorsulfuron, chlorsulfuron] was tested, and the “Uninhibited activity (%) in the Presence of Chlorsulfuron” value (“Uninhibited activity (%)” below) ([1]; 10 ppb) was […], the “Uninhibited activity (%)” value ([1]; 30 ppb) was […] and the “Uninhibited activity (%)” value ([1]; 100 ppb) was […]. The “concentration inhibiting ALS activity 50 percent” value ([1]; homozygous mutant extract, not achieved at highest concentration tested, 90 min) was […], the IC50 ([1]; homozygous mutant extract, not achieved at highest concentration tested, read-out: concentration inhibiting ALS activity 50 percent) was […] and the “% of control fresh weight” value [2] was 27.5%. For the same compound, the “Fr. Wt.” value [2] was 725 ± 95, the “% of control fresh weight” value [3] was 83.5% and the “Fr. Wt.” value [3] was 3453 ± 231. For the same compound, the “% of control fresh weight” value [4] was 86.7%, the “Fr. Wt.” value [4] was 1896 ± 119 and the “% of control fresh weight” value [5] was 1.3%. The “Fr. Wt.” value [5] was 33 ± 2, the “% of control fresh weight” value [6] was 32.1% and the “Fr. Wt.” value [6] was 1076 ± 108. For the same compound, the “% of control fresh weight” value [7] was 11.5%, the “Fr. Wt.” value [7] was 309 ± 34 and the “% of control fresh weight” value [8] was 96.5%. For the same compound, the “Fr. Wt.” value [8] was 3171 ± 260, the inhibition at 0.028 µM ([8]; Nicotiana tabacum, 10 ppb (28 nM), homozygous mutant cell line, read-out: growth inhibited (percent)) was under 5% and the “growth on supplemented medium” value [9] was “capable of growth”.
For `COC(=O)c1ccccc1S(=O)(=O)NC(=O)Nc1nc(C)cc(C)n1` [Sulfometuron-methyl, sulfometuron-methyl], the “resistance of mutant ALS activity to inhibition” value ([1]; mutant cell line versus parental activity) was “more resistant than the parental activity”, the “% of control fresh weight” value [2] was 13.0% and the “Fr. Wt.” value [2] was 344 ± 55. For the same compound, the “% of control fresh weight” value [3] was 83.9%, the “Fr. Wt.” value [3] was 3473 ± 323 and the “% of control fresh weight” value [4] was 62.6%. The “Fr. Wt.” value [4] was 1369 ± 63, the “% of control fresh weight” value [5] was 1.2% and the “Fr. Wt.” value [5] was 32 ± 2. The activity at 0.001 µg/mL ([5]; Nicotiana tabacum, 336 h, sulfometuron-methyl 1 ppb, Normal (H1) (Table 6), read-out: % of fresh weight at 0 ppb) was 1.4%, the activity at 0.01 µg/mL ([5]; Nicotiana tabacum, 336 h, sulfometuron-methyl 10 ppb, Normal (H1) (Table 6), read-out: % of fresh weight at 0 ppb) was 1% and the “Fr. wt.” value ([5]; sulfometuron-methyl 1 ppb, Normal (H1) (Table 6)) was 39 ± 2 mg. For the same compound, the “Fr. wt.” value ([5]; sulfometuron-methyl 10 ppb, Normal (H1) (Table 6)) was 29 ± 1 mg, the “% of control fresh weight” value [6] was 26.5% and the “Fr. Wt.” value [6] was 887 ± 92. For the same compound, the “% of control fresh weight” value [7] was 6.4%, the “Fr. Wt.” value [7] was 172 ± 14 and the “% of control fresh weight” value [8] was 33.6%. For the same compound, the “Fr. Wt.” value [8] was 1105 ± 80, the “growth of S4/S4 mutant cell line” value ([8]; 200 ppb sulfometuron-methyl) was “completely inhibits growth” and the activity at 0.01 µg/mL ([8]; Nicotiana tabacum, 336 h, sulfometuron-methyl 10 ppb, S4/S4 (Table 6), read-out: % of fresh weight at 0 ppb) was 34%. For the same compound, the “Fr. wt.” value ([8]; sulfometuron-methyl 10 ppb, S4/S4 (Table 6)) was 1105 ± 80 mg and the “growth on supplemented medium” value [9] was “capable of growth”.
